Entries after “also recorded” stand apart in the source; their conditions may differ.
Assays:
[1] = tested on: Mice; experiment: Writhing Test (acetic acid abdominal contraction test); assay type: in vivo, mouse; conditions: 100 mg/kg i.p., 30 minutes following acetic acid, vehicle 57±1
Description: The acetic acid abdominal contraction test (Martinez et al., Pain 1999; 81: 179) was used to determine the efficacy of different compounds in a model of acute visceral chemical nociception. […] Compound or vehicle was administered (i.p. or s.c.) 15-45 minutes prior to the acetic acid injection. Each episode of writhing is characterized by a lengthwise stretching of the torso with a concomitant arching of the back.
Statistical analysis was performed using Prism™ 4.01 software package (GraphPad, San Diego, Calif., USA). The difference in response levels between treatment groups and control vehicle group was analyzed using an ANOVA followed by Bonferroni's method for post-hoc pair-wise comparisons. A p value <0.05 was considered to be significant.

[2] = tested on: T1, PC12 (TrkA & p75); experiment: 125I-NGF binding displacement in PC12 cells; set-up: species or system rat; conditions: for PC12 (TrkA & p75) Single point (% max binding) Mean: PC12 cells; for NGF binding displacement, dose-response curve: PC12 cells expressing TrkA and p75, individual experiment
T1 construct: other: Concentration 25 μM; PC12 cells; other: Concentration 50 μM; other: PC12 cells; 125I-NGF ~0.11 nM; other: PC12 cells expressing TrkA and p75; individual experiment; fused on or other part: 125I label on NGF
Description: (§1) All cells were incubated at 37° C. in 5% CO2. PC12 cells were maintained in RPMI-1640 medium supplemented with 10% fetal bovine serum (FBS). A875 human melanoma cells were maintained in DMEM with 10% FBS. HEK 293 cells were stably transfected with human TrkA plasmid (see below) and maintained in DMEM with 10% FBS and G418 (600 μg/mL) for selection.
(§2) NGF binding was evaluated using methods familiar to those who are skilled in the art. Briefly, cells expressing one or both NGF receptors (PC12: TrkA+p75; A875: p75 alone; HEK_TrkA: TrkA alone) were harvested by replacing the medium with calcium-magnesium free balanced salt (Grey's) solution and incubating at 37° C. for 15 min. For NGF binding, cells were resuspended at a concentration of 2×10^6 cells/mL in HEPES-Krebs-Ringer (HKR) buffer (10 mM HEPES; 125 mM NaCl; 4.8 mM KCl; 1.3 mM CaCl2; 1.2 mM MgSO4; 1.2 mM KH2PO4; 1 mg/ml BSA; 1 mg/ml glucose; pH 7.4) and exposed to ^125I-NGF (˜0.11 nM) in the presence or absence of varying concentrations of the compound. Non-specific binding was determined for reference by incubating ^125I-NGF with an excess of non-radioactive NGF in the absence of compound. Following a two-hour incubation period at 4° C., ^125I-NGF bound to the cells was quantified in a gamma radiation counter following separation from unbound NGF by filtration or centrifugation through glycerol (10% in HKR). Inhibition of binding was calculated as a percent of the specific binding (calculated as the differential between ^125I-NGF binding in the absence and presence of an excess of non-radioactive NGF without compound). Dose-response inhibition curves were typically generated with seven concentrations of a given compound, with three replicates for each concentration. For most compounds, multiple dose-response curves were generated.

[3] = tested on: PC12 cells; experiment: NGF-induced neurite outgrowth in PC12 cells; assay type: cell-based, rat; conditions: 4 days of exposure to NGF
Description: This assay was run as a further functional marker of NGF antagonism and takes advantage of the differentiation of PC12 cells (neurite outgrowth) induced by NGF. Cultures of PC12 cells were grown on Terasaki plates pre-coated with poly-D-lysine. Cells were exposed to NGF (1-50 (preferably 5) ng/ml) to induce neurite outgrowth as described elsewhere [L A Greene & A S Tischler, Establishment of a noradrenergic clonal line of rat adrenal pheochromocytoma cells which respond to nerve growth factor, Proc Natl Acad Sci USA. 1976 July; 73(7): 2424-2428]. In addition to NGF, cells were exposed to varying concentration of the compounds or vehicle. Following 4 days of exposure to NGF in the presence or absence of compound, neurite outgrowth was quantified. A neurite was scored if its caliber from origin to terminal was approximately the same and the length was equal to or greater than 1.5 the cell body diameter. The number of neurite bearing cells per total number of viable cells was calculated for each condition; the number of cells with neurites in the presence of NGF (without compound exposure) was considered to represent maximal (100%) outgrowth, to which the inhibitory effect of compounds of the invention on NGF-induced outgrowth was compared.

[4] = tested on: T2, PC12 (TrkA & p75); experiment: 125I-NGF binding displacement in PC12 cells; set-up: species or system rat; conditions: PC12, A875 and HEK_TrkA cells taken together
T2 construct: other: PC12, A875 an; fused on or other part: 125I label on NGF
Description: as §1, §2

[5] = tested on: A875: p75 alone; experiment: 125I-NGF binding displacement in A875 cells; set-up: species or system human; conditions: A875 cells expressing p75; individual experiment
Description: as §1, §2

[6] = tested on: HEK_TrkA: TrkA alone (human TrkA); experiment: 125I-NGF binding displacement in HEK_TrkA cells; conditions: individual experiment
Description: as §1
Expression of human TrkA in HEK cells was achieved by transfecting the cells with the TrkA expression vector using Lipofectamine (Invitrogen) reagent. HEK cells were plated in 100 mm Petri dishes at a concentration of 10^6 cells per dish. The next day, a solution of DNA diluted in 1 mL OptiMEM (Invitrogen) per dish was prepared and incubated for 15 min at room temperature. […]
NGF binding was evaluated using methods familiar to those who are skilled in the art. […] Non-specific binding was determined for reference by incubating ^125I-NGF with an excess of non-radioactive NGF in the absence of compound. Following a two-hour incubation period at 4° C., ^125I-NGF bound to the cells was quantified in a gamma radiation counter following separation from unbound NGF by filtration or centrifugation through glycerol (10% in HKR). Inhibition of binding was calculated as a percent of the specific binding (calculated as the differential between ^125I-NGF binding in the absence and presence of an excess of non-radioactive NGF without compound). […]

[7] = tested on: Male Sprague-Dawley rats; experiment: Spared Nerve Injury (SNI) model of neuropathic pain; assay type: in vivo, rat; conditions: Von Frey filaments, 90 min post-treatment, Compound 11 3 and 10 mg/kg i.p., Compound 107 20 mg/kg i.p.
From the text: The Spared Nerve Injury (SNI) model (Decosterd et al., Pain 2000; 87: 149) was used to induce chronic neuropathic pain. Male Sprague-Dawley rats were anesthetized with isoflurane, and two of the three terminal branches of the sciatic nerve (tibial and common peroneal nerves) were transected, leaving the remaining sural nerve intact. Animals develop thermal and mechanical hyperalgesia and allodynia, as well as spontaneous pain or dysesthesia that last month after the nerve injury.
Mechanical allodynia testing: Pre- and post-injury baselines as well as post-treatment values (vehicle or compound-treated animals) for mechanical allodynia were evaluated using Von Frey filaments (Stoelting, Wood Dale, Ill., USA) with varying stiffness. […] The mean and standard error of the mean (SEM) were determined for each paw in each treatment group (ipsilateral/injured paw and contralateral/non-injured paw). […] Effects of compounds were evaluated two weeks after the injury. Compound or vehicle was administered (i.p. or s.c.) and effects on mechanical allodynia were measured at different time points after dosing (e.g., 30, 60 and 90 min.).
Data analysis: Statistical analyses were conducted using Prism™ 4.01 (GraphPad, San Diego, Calif., USA). Mechanical hypersensitivity of the injured paw was determined by comparing contralateral to ipsilateral paw values within the vehicle group at each time point. […]

O=C(O)CCCN1C(=O)c2cccc3cc([N+](=O)[O-])cc(c23)C1=O [Compound 63, 4-(5-Nitro-1,3-dioxo-1H,3H-benzo[de]isoquinolin-2-yl)-butyric acid]
Number of abdominal contractions (writhing) [1]: 9±3

O=C(O)CCCN1C(=O)c2cccc3c(C(=O)O)ccc(c23)C1=O [Compound 100, 2-(3-Carboxy-propyl)-1,3-dioxo-2,3-dihydro-1H-benzo[de]isoquinoline-6-carboxylic acid]
PC12 (TrkA & p75) Single point (% max binding) Mean ([2]; Concentration 25 μM): *** (* < *** <30)

O=C(O)CCCN1C(=O)c2cccc3c(C(=O)c4ccccc4)ccc(c23)C1=O [Compound 99, 4-(6-Benzoyl-1,3-dioxo-1H,3H-benzo[de]isoquinolin-2-yl)-butyric acid]
PC12 (TrkA & p75) Single point (% max binding) Mean ([2]; Concentration 25 μM): *** (* < *** <30)

CN(C)S(=O)(=O)c1cc2c3c(cccc3c1)C(=O)N(CCCC(=O)O)C2=O [Compound 114, 4-(5-Dimethylsulfamoyl-1,3-dioxo-1H,3H-benzo[de]isoquinolin-2-yl)-butyric acid]
PC12 (TrkA & p75) Single point (% max binding) Mean ([2]; Concentration 50 μM): ** (30 < ** <50)

O=C(O)CCCN1C(=O)c2cc(Br)cc3cc([N+](=O)[O-])cc(c23)C1=O [Compound 89, 4-(5-Bromo-8-nitro-1,3-dioxo-1H,3H-benzo[de]isoquinolin-2-yl)-butyric acid]
PC12 (TrkA & p75) Single point (% max binding) Mean ([2]; Concentration 50 μM): ** (30 < ** <50)

NNC(=O)NN1C(=O)c2cc(S(=O)(=O)[O-])cc3c(N)c(S(=O)(=O)[O-])cc(c23)C1=O.[K+].[K+] [Compound 52, 6-Amino-1,3-dioxo-2-amino-ureido-2,3-dihydro-1H-benzo[de]isoquinoline-5,8-disulfonic acid-di-potassium salt]
PC12 (TrkA & p75) Single point (% max binding) Mean ([2]; Concentration 50 μM): * (* >50)

CN(C)S(=O)(=O)c1ccc2c3c(cccc13)C(=O)N(CCCC(=O)O)C2=O [Compound 112, 4-(6-Dimethylsulfamoyl-1,3-dioxo-1H,3H-benzo[de]isoquinolin-2-yl)-butyric acid]
PC12 (TrkA & p75) Single point (% max binding) Mean ([2]; Concentration 50 μM): *** (* < *** <30)

NC(=O)c1cc2c3c(cccc3c1)C(=O)N(CCCC(=O)O)C2=O [Compound 95, 4-(5-Carbamoyl-1,3-dioxo-1H,3H-benzo[de]isoquinolin-2-yl)-butyric acid]
Inhibition of NGF-induced neurite outgrowth [3]: effectively inhibits neurite outgrowth induced by NGF

O=C1Nc2ccc([N+](=O)[O-])c3cccc1c23 [Compound 103, 6-Nitro-1H-benzo[cd]indol-2-one]
PC12 (TrkA & p75) Single point (% max binding) Mean ([2]; Concentration 25 μM): * (* >50)

N#Cc1cc2c3c(cccc3c1)C(=O)N(CCCC(=O)O)C2=O [Compound 124, 4-(5-Cyano-1,3-dioxo-1H,3H-benzo[de]isoquinolin-2-yl)-butyric acid]
NGF binding displacement, dose-response curve [2]: effectively blocks NGF binding to cells expressing TrkA and p75
Block of NGF binding to TrkA and/or p75 (summary of FIGS. 1B, 2A, 2B, 4A, 4B, 6A, 6B, 7A, 8A, 8B) [4]: effectively block NGF binding to TrkA and/or p75
NGF binding displacement, dose-response curve [5]: effectively blocks NGF binding to cells expressing p75
Inhibition of NGF-induced neurite outgrowth [3]: effectively inhibit neurite outgrowth induced by NGF

CC(=O)Nc1cc2c3c(cc(NC(C)=O)cc3c1)C(=O)N(CCCS(=O)(=O)O)C2=O [Compound 107, 3-(5,8-Bis-acetylamino-1,3-dioxo-1H,3H-benzo[de]isoquinolin-2-yl)-propane-1-sulfonic acid]
NGF binding displacement, dose-response curve [2]: effectively blocks NGF binding to cells expressing TrkA and p75
Block of NGF binding to TrkA and/or p75 (summary of FIGS. 1B, 2A, 2B, 4A, 4B, 6A, 6B, 7A, 8A, 8B) [4]: effectively block NGF binding to TrkA and/or p75
NGF binding displacement, dose-response curve [6]: effectively blocks NGF binding to cells expressing TrkA
NGF binding displacement, dose-response curve [5]: effectively blocks NGF binding to cells expressing p75
Effect on mechanical allodynia in the SNI model [7]: significant dose-dependent reversal of the mechanical allodynia; also recorded: significant antinociceptive effects
Inhibition of NGF-induced neurite outgrowth [3]: effectively inhibits neurite outgrowth induced by NGF

O=C(O)CCCN1C(=O)c2cccc3c(Cl)ccc(c23)C1=O [Compound 104, 4-(6-Chloro-1,3-dioxo-1H,3H-benzo[de]isoquinolin-2-yl)-butyric acid]
PC12 (TrkA & p75) Single point (% max binding) Mean ([2]; Concentration 25 μM): ** (30 < ** <50)

O=C(O)CCCN1C(=O)c2cccc3c(S(=O)(=O)N4CCOCC4)ccc(c23)C1=O [Compound 113, 4-[6-(Morpholine-4-sulfonyl)-1,3-dioxo-1H,3H-benzo[de]isoquinolin-2-yl]-butyric acid]
PC12 (TrkA & p75) Single point (% max binding) Mean ([2]; Concentration 50 μM): ** (30 < ** <50)

Reference: patent US7579468B2, “Methods of modulating neurotrophin-mediated activity” (PainCeptor Pharma Corporation, priority 2005, dated 2009)
